Reference: US8426568B2 (University of Virginia Patent Foundation, priority 2006, dated 2013)
≈ marks a conversion by molar mass, not a printed value. Like-named read-outs stand apart in the source and are kept apart here.

How the values were obtained:
[1] = target: recombinant, constitutively active RSK2 (Homo sapiens, UniProt P51812); assay: in vitro RSK kinase assay; format: biochemical; conditions: 10 μM ATP, 30 min, read-out: IC50 for inhibition of RSK catalytic activity in vitro
MAPK = assay: PDB-stimulated MAPK activation in MCF-7 cells (anti-active MAPK immunoblot); format: cell-based, human; conditions: serum-deprived MCF-7; 4 h pre-incubation; 500 nM PDB 20 min
Method: (3A) The potency of the synthesized compounds in inhibiting RSK catalytic activity in vitro was measured as described in FIG. 2A and is graphically illustrated. (3B) Represents an images of immunoblots where serum-deprived MCF-7 cells were pre-incubated with vehicle, or the indicated concentration of inhibitor for 4 h. Cells were treated with 500 nM PDB or vehicle for 20 min prior to lysis. Protein concentration of lysates was measured and lysates were electrophoresed, transferred and immunoblotted.
(§1) For proliferation studies cells were seeded at 5000 cells per well in 96 well tissue culture plates in the appropriate medium as described by American Type Culture Collection. After 24 hours, the medium was replaced with medium containing compound or vehicle as indicated. Cell viability was measured at indicated time points using CellTiter-Glo™ assay reagent (Promega, Madison, Wis.) according to manufacturer's protocol. Maximum responses and the concentrations of half the effective response (EC50) were determined by performing a best-fit analysis of the data (GraphPad Prism). For specificity studies, cells were seeded at 3×10^5 cells/well in 6 well plates. After 24 hours, the cells were serum-starved for 24 hours then incubated with compound or vehicle for 4 hours prior to a 20 minute treatment with PDB. Cells were lysed with boiling SDS-sample buffer without dithiothreitol (DTT). […]

PKA, PKC and AKT = assay: phosphorylation patterns in MCF-7 cells with phospho-PKA, -PKC, -AKT substrate antibodies (specificity); format: cell-based, human; conditions: pre-incubation before PDB
Method: MCF-7 cell lysates normalized for protein concentration were electrophoresed, transferred and immunoblotted with anti-phospho-PKA substrate, anti-phospho-PKC substrate or anti-phospho-AKT substrate.
(§2) For proliferation studies cells were seeded at 5000 cells per well in 96 well tissue culture plates in the appropriate medium as described by American Type Culture Collection. After 24 hours, the medium was replaced with medium containing compound or vehicle as indicated. Cell viability was measured at indicated time points using CellTiter-Glo™ assay reagent (Promega, Madison, Wis.) according to manufacturer's protocol. Maximum responses and the concentrations of half the effective response (EC50) were determined by performing a best-fit analysis of the data (GraphPad Prism). For specificity studies, cells were seeded at 3×10^5 cells/well in 6 well plates. After 24 hours, the cells were serum-starved for 24 hours then incubated with compound or vehicle for 4 hours prior to a 20 minute treatment with PDB. Cells were lysed with boiling SDS-sample buffer without dithiothreitol (DTT). The lysates were normalized for total protein, and DTT was added to an aliquot, which was electrophoresed and immunoblotted. Antibodies used on cell lysates included anti-pan-MAPK (anti-ERK1/2) (610124) from BD Transduction Laboratories; anti-phospho-MAPK (V8031) from Promega; anti-eEF2 (2332), anti-phospho-eEF2 (2331), anti-phospho-Akt Substrate (9611), anti-phospho-PKA Substrate (9621), and anti-phospho-PKC Substrate (2261) from Cell Signaling Technology. Anti-Ran was a generous gift from Ian Macara (University of Virginia).
The lysates were immunoblotted with multiple phospho-specific substrate antibodies.

[2] = calculated LogP (Molinspiration Property Calculation Service); conditions: relative to SL0101, from calculated LogP
Method: Reagents and solvents were reagent grade and used without further purification. Methylene chloride was distilled from calcium hydride. Anhydrous grade THF was purchased from VWR. All reactions involving air or moisture sensitive reagents or intermediates were performed under a nitrogen or argon atmosphere. Flash chromatography was performed using Silicycle 40-60 mesh silica gel. Analytical TLC was performed using 0.25 mm EM silica gel 60 […] plates that were visualized by irradiation (254 nm) or by staining with Hanessian's stain (cerium molybdate). Optical rotations were obtained using a Jasco digital polarimeter. ^1H and ^13C NMR spectra were obtained using 300 MHz and 500 MHz Varian instruments. Chemical shifts are reported in parts per million (ppm δ) referenced to the residual ^1H resonance of the solvent (CDCl3, 7.26 ppm; DMSO-d6, 2.49 ppm). ^13C spectra were referenced to the residual ^13C resonance of the solvent (CDCl3, 77.3 ppm; DMSO-d6, 39.5 ppm). Splitting patterns are designated as follows: s, singlet; br, broad; d, doublet; dd, doublet of doublets; t, triplet; q, quartet; m, multiplet. High resolution mass spectra were obtained at the Michigan State University-NIH Mass Spectrometry Facility. LogP values were calculated using Molinspiration Property Calculation Service (see their website).

MCF-10A cells [3] = assay: MCF-10A cell proliferation (CellTiter-Glo); format: cell-based, human; conditions: 48 h treatment
Method: (§3) The cell number was measured after 48 h of treatment. Values given are the fold proliferation as a percentage of that observed with vehicle-treated cells. Points, mean (n=2 in quadruplicate); bars=SD.
as §1, with “(DTT). The lysates were normalized for total protein, and DTT was added to an aliquot, which was electrophoresed and immunoblotted.” for “(DTT).”

MCF-7 cells [4] = assay: MCF-7 cell proliferation (CellTiter-Glo); format: cell-based, human; conditions: for inhibition of MCF-7 cell proliferation at 50 μM: 72 h
Method: (2A) The potency of purified compounds in inhibiting RSK catalytic activity in vitro was measured. Kinase assays were performed using immobilized substrate. The reactions were initiated by the addition of 10 μM ATP (final concentration). Reactions were terminated after 30 min. All assays measured the initial reaction velocity. The extent of phosphorylation was determined using phosphospecific antibodies in combination with HRP-conjugated secondary antibodies. HRP activity was measured as described in the Experimental. Maximum and minimum activity is the relative luminescence detected in the presence of vehicle and 200 mM EDTA, respectively. Points, mean (n=2 in triplicate); bars=SD. (2B) The potency of purified compounds as inhibitors of MCF-7 cell proliferation was determined. […] Values given are the fold proliferation. Points, mean (n=3 in quadruplicate); bars=SD.
as §3, §2

[5] = maximum solubility in tissue culture media; format: physicochemical; conditions: aqueous buffer
RSK = assay: eEF2 phosphorylation in PDB-stimulated MCF-7 cells (RSK activity in intact cells); format: cell-based, human; conditions: serum-deprived MCF-7; 4 h pre-incubation; 500 nM PDB 20 min
Source text: Therefore, the phosphorylation state of eEF2 during mitogenic stimulation is an indicator of RSK activity.

MCF-7 cells [6] = conditions: cited from earlier work
MCF-10A cells [7] = conditions: background; cited from earlier work
[8] = compounds purified from F. refracta

recombinant, constitutively active RSK2, sequence (P51812 1-397 limits assumed): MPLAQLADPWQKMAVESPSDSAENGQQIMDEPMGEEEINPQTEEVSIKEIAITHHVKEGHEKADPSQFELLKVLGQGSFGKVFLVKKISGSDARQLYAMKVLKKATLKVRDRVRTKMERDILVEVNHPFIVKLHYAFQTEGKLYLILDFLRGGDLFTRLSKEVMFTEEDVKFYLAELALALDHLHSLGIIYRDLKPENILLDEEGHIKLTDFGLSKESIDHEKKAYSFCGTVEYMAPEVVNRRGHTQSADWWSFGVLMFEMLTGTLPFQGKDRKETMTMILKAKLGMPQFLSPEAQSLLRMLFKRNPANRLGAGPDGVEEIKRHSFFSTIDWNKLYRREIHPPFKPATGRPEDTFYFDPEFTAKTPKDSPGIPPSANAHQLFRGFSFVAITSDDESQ

Structure (SMILES)	effect on PDB-induced MAPK activation / upstream kinases (MEK, Raf, PKC) (MAPK)	effect on phosphorylation patterns (phospho-PKA, -PKC, -AKT substrate antibodies) (PKA, PKC and AKT)	specificity for RSK in intact cells (PKA, PKC and AKT)	IC50 [1, 8]	inhibition of MCF-7 cell proliferation at 50 μM (MCF-7 cells [4])	effect on eEF2 phosphorylation after PDB (RSK)	also measured
CCCC(=O)O[C@@H]1[C@@H](OC(=O)CCC)[C@@H](O)[C@H](Oc2c(-c3ccc(O)cc3)oc3cc(O)cc(O)c3c2=O)O[C@H]1C [Bu-SL0101, kaempferol 3-O-(3″,4″-di-O-butyryl-α-L-rhamnopyranoside)]	do not inhibit upstream kinases necessary for PDB-induced MAPK activation	decreased the PDB-induced phosphorylation of a ˜25 kDa protein	not specific for inhibition of RSK activity	–	–	–	IC50 ([1]; synthesized compounds): 0.212 µM; increase in hydrophobicity [2]: > 50 fold; concentration at which significant inhibition of MCF-10A proliferation began (MCF-10A cells [3]): 100 µM; EC50 (MCF-7 cells [4]; Homo sapiens, MCF7, 48 h treatment, read-out: EC50 for inhibition of MCF-7 proliferation): 40 µM; solubility [5]: ~100 µM (≈ 57.3 µg/mL)
CC(=O)OC1C(C)OC(Oc2c(-c3ccc(O)cc3)oc3cc(O)cc(O)c3c2=O)C(OC(C)=O)C1O [2″,4″-di-O-acetyl-SL0101, kaempferol 3-O-(2″,4″-di-O-acetyl-α-L-rhamnopyranoside)]	–	–	–	~0.26 µM	similarly effective at inhibiting MCF-7 cell growth	–	–
CC(=O)OC1C(C)OC(Oc2c(-c3ccc(O)cc3)oc3cc(O)cc(O)c3c2=O)C(O)C1OC(C)=O [SL0101, kaempferol 3-O-(3″,4″-di-O-acetyl-α-L-rhamnopyranoside), reference compound]	do not inhibit upstream kinases necessary for PDB-induced MAPK activation	similar	demonstrates specificity for RSK in intact cells	–	similarly effective at inhibiting MCF-7 cell growth	eliminated PDB-mediated inactivation of eEF2K	proliferation of the human breast cancer cell line MCF-7 (MCF-7 cells [6]; background): inhibits proliferation; EC50 (MCF-7 cells [6]; previously reported (ref 4), current results in agreement, read-out: EC50 for inhibition of MCF-7 cell proliferation): ~50 µM; growth of the normal human breast line MCF-10A (MCF-10A cells [7]): does not prevent the growth
N#CC(=C(/N)Sc1ccccc1N)/C(C#N)=C(\N)Sc1ccccc1N [U0126, reference compound]	–	PDB-induced phosphorylation is inhibited	–	–	–	levels of eEF2 phosphorylation also remained increased	–
CC(=O)OC1C(C)OC(Oc2c(-c3ccc(O)cc3)oc3cc(O)cc(O)c3c2=O)C(O)C1O [4″-mono-O-acetyl-SL0101, kaempferol 3-O-(4″-mono-O-acetyl-α-L-rhamnopyranoside)]	–	–	–	~0.14 µM	did not inhibit MCF-7 cell proliferation	–	–
